Patent US20100234381A1, “BIOMARKERS AND METHODS FOR DETERMINING SENSITIVITY TO VASCULAR ENDOTHELIAL GROWTH FACTOR RECEPTOR-2 MODULATORS” (Bristol-Myers Squibb Company, priority 2007, published 2010)

Legend:
[1] = test system: FGF2-stimulated cancer cell lines; test: FGF2-stimulated tumor cell proliferation, panel of cancer cell lines; assay type: cell-based; settings: following FGF2 stimulation
[2] = test system: advanced or metastatic solid tumors; test: Phase 1 clinical study CA 182-002: tumor response and PFS by FGF2 status; assay type: in vivo, human; settings: for patients with progressive disease / patients with a partial response or stable disease: after 56 days of treatment; for patients with a partial response or stable disease: WHO criteria; for median increase in tumor size from baseline: after two cycles of treatment (approximately 56 days)
From the text: All patients gave informed consent for the clinical trial and for this study, which was approved by the appropriate institutional review boards. Inclusion criteria include ECOG 0-1 (S. Javerzat et al., Trends Mol. Med., 8:483 (2002)), adequate bone marrow and hepatic function, and having tumor tissue block or 20 to 30 unstained slides of the initial biopsy available. Exclusion criteria included prior exposure to vascular endothelial growth factor (VEGF) inhibitors, presence of cardiovascular disease, thromboembolism, or bleeding in the last 6 months. All patients enrolled in the clinical trial had previously failed primary and secondary chemotherapy courses. […] Patients' response was measured by quantifying tumor size by contrast enhanced tomography (CT).
Tumor response was assesses using the modified WHO tumor response criteria. Lesions were evaluated by computed tomography (CT). Lesions were bidimensional and had at least one diameter of >2 cm on standard CT and >1 cm on spiral CT. For bidimensional measurements, the second diameter was perpendicular to the longest diameter. The area of lesion was calculated by multiplying the longest diameter by the greatest perpendicular diameter.
Tumor blocks were sectioned at 4 μm. Slides were de-paraffined and rehydrated in the LEICA® ST5020 Multistainer. Antigen retrieval was carried out by heating slides with Citra Plus Antigen retrieval solution (BioGenex, Cat # HK080-9K) in a BIOGENEX® EZ-Retriever Microwave at 95° C. for 15 minutes. The slides were then cooled at room temp for 5 minutes, and rinsed with distilled water for three times (˜1 minute each). Slides were immunostained in the i6000 Automated Staining System (BioGennex) using the following conditions: blocking with peroxide block (DAKO, Cat# K4007) for 5 minutes, followed by 5% goat serum for 30 mins, primary antibodies rabbit anti-fibroblast growth factor-2 (FGF-2) (Abcam Cat# #16828) 1:25 or rabbit immunoglobulin G (Rabbit IgG, LabVision, Cat# NC-100-P) 5 μg/ml were added and incubated for 1 hour, followed by Peroxidase Anti-Rabbit IgG (H+L) secondary antibody (Vector, Cat# PI-1000) at 1:200 dilution for 45 minutes. Chromogen substrate DAB (DAKO, Cat# K4007) was added and incubated for 5 minutes. Slides were counterstained with hematoxyline (DAKO cat#53309) for 1 minute. The stained slides were dehydrated and coverslipped in the LEICA® ST5020 Multistainer and assessed by a board-certified pathologist, without knowledge of patients' medical status.
To compare response rates between the FGF-2(+) and FGF-2(−) groups, a Fisher's exact test was used. To test for differences of percent changes from baseline in tumor between FGF-2(+) and FGF-2(−) groups, a non-parametric Wilcoxon rank-sum test was used (since the assumptions on the marginal distributions for the t-statistic were slightly violated for percent change from baseline, and small sample sizes could increase the test's vulnerability to assumption violations). The same method was applied to test for the difference in percent change from baseline of CIV at Day 8 and Day 26 between the two groups. In addition, a Rank-based ANCOVA was used to investigate the effect of the FGF-2 status on the post-baseline tumor volume, adjusted for the baseline tumor volume. All analyses were performed using R (Y. Shing et al., Science., 223:1296 (1984)).

[(1R),2S]-2-Aminopropionic acid 2-[4-(4-fluoro-2-methyl-1H-indol-5-yloxy)-5-methylpyrrolo[2,1-f][1,2,4]triazin-6-yloxy]-1-methylethyl ester [brivanib]
Brivanib-resistant (>3 μM) cell lines, number ([1]; Colon cell lines): 3 | Brivanib-resistant (>3 μM) cell lines, number ([1]; NSCLC cell lines): 1 | Brivanib-resistant (>3 μM) cell lines, number ([1]; Ovarian cell lines): 1 | Brivanib-sensitive (≦3 μM) cell lines, number ([1]; Ovarian cell lines): 1 | Brivanib-resistant (>3 μM) cell lines, number ([1]; Pancreatic cell lines): 1 | Brivanib-sensitive (≦3 μM) cell lines, number ([1]; Pancreatic cell lines): 1 | Brivanib-sensitive (≦3 μM) cell lines, number ([1]; Prostate cell lines): 1 | Brivanib-resistant (>3 μM) cell lines, number ([1]; Renal cell lines): 1 | Brivanib-sensitive (≦3 μM) cell lines, number ([1]; Renal cell lines): 3 | Brivanib-sensitive (≦3 μM) cell lines, number ([1]; Total of cell lines): 9 | tumor shrinkage from baseline, FGF2 staining vs negative staining tumors ([2]; Example 1 analysis of CA 182-002, not statistically significant): tend to have more shrinkage than the negative staining tumors | survival, FGF2 positive vs negative tumors (Kaplan-Meier) ([2]; Example 1 analysis of CA 182-002, p value 0.475): tended to have a survival advantage | Mean change in tumor size (%) (~8 wks) High (≧600 mg) (n = 26) ([2]; FGF2+ patients (n = 24)): 0.9% | Mean change in tumor size (%) (~8 wks) Low (<600 mg) (n = 17) ([2]; FGF2+ patients (n = 24)): 28% | Median PFS (days) High (≧600 mg) (n = 26) ([2]; FGF2+ patients (n = 24)): 107 days | Median PFS (days) Low (<600 mg) (n = 17) ([2]; FGF2+ patients (n = 24)): 71 days | PD, number of patients ([2]; FGF2+ patients (n = 24)): 9 | PR, number of patients ([2]; FGF2+ patients (n = 24)): 2 | Mean change in tumor size (%) (~8 wks) High (≧600 mg) (n = 26) ([2]; FGF2− patients (n = 19)): 24% | Mean change in tumor size (%) (~8 wks) Low (<600 mg) (n = 17) ([2]; FGF2− patients (n = 19)): 71% | Median PFS (days) High (≧600 mg) (n = 26) ([2]; FGF2− patients (n = 19)): 56 days | Median PFS (days) Low (<600 mg) (n = 17) ([2]; FGF2− patients (n = 19)): 54 days | PD, number of patients ([2]; FGF2− patients (n = 19)): 14 | PR, number of patients ([2]; FGF2− patients (n = 19)): 0 | reduction of tumor growth, FGF-2(+) compared with FGF-2(−) patients ([2]; patients with FGF-2(+) tumors): three-fold | patients with progressive disease ([2]; patients with FGF-2(+) tumors): 9 out of 24 | patients with a partial response or stable disease ([2]; patients with FGF-2(+) tumors): 62.5% | median increase in tumor size from baseline ([2]; patients with FGF-2(+) tumors): 1% | patients with progressive disease ([2]; patients with FGF-2(−) tumors): 14 out of 19 | median increase in tumor size from baseline ([2]; patients with FGF-2(−) tumors): 36% | patients with a partial response or stable disease ([2]; patients with FGF-2− tumors): 26.3%
